The values below come from ChEMBL document CHEMBL1201862, “PubChem BioAssay data set” (2004).

Each structure is given as a SMILES string.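 Assay format: 96-well plates, 48-hour exposure. GI50 marks 50% less growth.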 The source made the active and inactive calls. No stated cut-off is given here; in the data, active = GI50 up to about 1.1 µM and inactive = higher.

Test systems include HCT-15; SK-MEL-2; SNB-75; M14; HCC 2998; HT-29; NCI-H460; EKVX; OVCAR-8; UO-31; ACHN; TK-10; SF-539; COLO 205; NCI-H23; HCT-116; U-251; K562; CAKI-1; CCRF-CEM.
What all share (experiment): inhibition of tumour cell growth, NCI panel, 48 h

Consider `O=C1NCN(c2ccccc2)C12CCN(CCCSc1ccc(F)cc1)CC2`, for which the GI50 is 31.1 µM with HCT-15; 15.1 µM (inactive) in the experiment on SK-MEL-2; 3.72 µM (inactive) with SNB-75; 6.25 µM (inactive) in the experiment with M14; 20.2 µM (inactive) in the experiment with HCC 2998; 3.85 µM (inactive) with HT-29. Also, the GI50 in the experiment with NCI-H460 was 13 µM (inactive); with EKVX it was 28.2 µM (inactive); in the experiment with OVCAR-8 it was > 100 µM (inactive); in the experiment on UO-31 it was 48.5 µM (inactive); in the experiment on ACHN, 19.7 µM (inactive); with TK-10, 24.2 µM (inactive). In addition, the GI50 was 17.3 µM (inactive) in the experiment on SF-539; 1.51 µM (inactive) in the experiment on COLO 205; 27.7 µM (inactive) in the experiment with NCI-H23; 5.09 µM (inactive) in the experiment on HCT-116; > 88.5 µM (inactive) in the experiment with U-251; 19.5 µM (inactive) in the experiment on K562. For the same molecule, the GI50 with CAKI-1 is > 51.5 µM (inactive); with CCRF-CEM it was 7 µM (inactive).
For `C=CS(=O)(=O)c1c2cc(OC)ccc2nc2ccc(OC)cc12`, the GI50 in the experiment on HCT-15 is 3.31 µM; with SK-MEL-2, 19 µM (inactive); in the experiment on SNB-75 it was 12.4 µM (inactive); in the experiment with M14, 7.46 µM (inactive); in the experiment on HCC 2998, 7.91 µM (inactive); in the experiment on HT-29, 2.54 µM (inactive). In addition, the GI50 in the experiment on NCI-H460 is 5.12 µM (inactive); in the experiment with EKVX, 8.32 µM (inactive); in the experiment with OVCAR-8 it was 3.6 µM (inactive); in the experiment with UO-31, 3.08 µM (inactive); with ACHN, 3.35 µM (inactive); with TK-10, 7.62 µM (inactive). The GI50 in the experiment with SF-539 was 2.51 µM (inactive); in the experiment with COLO 205 it was 4.34 µM (inactive); with NCI-H23 it was 4.02 µM (inactive); in the experiment on HCT-116 it was 2.11 µM (inactive); in the experiment with U-251, 7.05 µM (inactive); with K562 it was 4.39 µM (inactive). The GI50 in the experiment with CAKI-1 was 4.22 µM (inactive); in the experiment on CCRF-CEM it was 3.22 µM (inactive).
Regarding `Clc1nc(Cl)nc(Nc2cccc3ccccc23)n1`, the GI50 in the experiment on HCT-15 was above 10 µM; with SK-MEL-2, > 10 µM (inactive); with SNB-75, > 10 µM (inactive); in the experiment on M14, > 10 µM (inactive); in the experiment with HCC 2998, > 10 µM (inactive); in the experiment on HT-29, > 10 µM (inactive). Also, the GI50 in the experiment with NCI-H460, with EKVX, in the experiment on OVCAR-8, in the experiment on UO-31, in the experiment on ACHN and in the experiment on TK-10 was > 10 µM (inactive) each time. Further, the GI50 with SF-539, in the experiment on COLO 205, in the experiment with NCI-H23, in the experiment with HCT-116, in the experiment on U-251 and with K562 was > 10 µM (inactive) each time. The GI50 in the experiment with CAKI-1 and in the experiment on CCRF-CEM was > 10 µM (inactive) throughout.
With `COc1ccc(C(=O)Cc2ccc(Cl)cc2)cc1OC`, the GI50 in the experiment with HCT-15 is above 100 µM; in the experiment with SK-MEL-2, > 100 µM (inactive); in the experiment with SNB-75, 34.4 µM (inactive); in the experiment on M14, > 100 µM (inactive); in the experiment with HCC 2998, > 100 µM (inactive); in the experiment on HT-29, > 100 µM (inactive). Moreover, the GI50 in the experiment with NCI-H460, in the experiment with EKVX, with OVCAR-8, in the experiment on UO-31, with ACHN and in the experiment with TK-10 was > 100 µM (inactive) in each case. Also, the GI50 in the experiment on SF-539, in the experiment with NCI-H23, with HCT-116, with U-251, in the experiment on K562 and in the experiment with CAKI-1 was > 100 µM (inactive) throughout. In addition, in the experiment on CCRF-CEM, the GI50 was > 100 µM (inactive).
Turning to `CC(=O)NNc1nc(C)c(C(=O)NNC(=O)C(=O)Nc2cccc(C(C)=O)c2)s1`, the GI50 was 21.2 µM in the experiment with HCT-15; 36.1 µM (inactive) in the experiment with SK-MEL-2; 17.3 µM (inactive) with SNB-75; 17.3 µM (inactive) in the experiment on HCC 2998; 50.2 µM (inactive) with HT-29; 12.7 µM (inactive) with NCI-H460. Further, the GI50 is 42.7 µM (inactive) in the experiment on EKVX; 20 µM (inactive) in the experiment with OVCAR-8; 17.1 µM (inactive) with UO-31; 16.9 µM (inactive) in the experiment with ACHN; 16.9 µM (inactive) in the experiment on TK-10; 18.7 µM (inactive) in the experiment on SF-539. Moreover, the GI50 was 53.6 µM (inactive) with COLO 205; 17.5 µM (inactive) in the experiment with NCI-H23; 31.8 µM (inactive) in the experiment with HCT-116; 26.6 µM (inactive) in the experiment on U-251; 32.1 µM (inactive) in the experiment on K562; 16.4 µM (inactive) in the experiment with CAKI-1. Further, in the experiment on CCRF-CEM, the GI50 was 23.2 µM (inactive).
As to `C=CCOC1=C(OCC=C)C(C2COC(C)(C)O2)OC1=O` (configuration not stated), the GI50 was above 100 µM in the experiment on HCT-15; > 100 µM (inactive) in the experiment with SK-MEL-2; > 100 µM (inactive) in the experiment on SNB-75; > 100 µM (inactive) in the experiment with M14; > 100 µM (inactive) in the experiment on HCC 2998; > 100 µM (inactive) with HT-29. In addition, the GI50 in the experiment on NCI-H460, in the experiment with EKVX, in the experiment with OVCAR-8, with UO-31, in the experiment with ACHN and with TK-10 was > 100 µM (inactive) throughout. Moreover, the GI50 in the experiment with SF-539 was > 100 µM (inactive); in the experiment with COLO 205, > 100 µM (inactive); in the experiment on NCI-H23, > 100 µM (inactive); in the experiment with HCT-116, > 100 µM (inactive); in the experiment with U-251 it was > 100 µM (inactive); in the experiment on K562, 75.5 µM (inactive). Moreover, the GI50 with CAKI-1 is 18.7 µM (inactive); with CCRF-CEM it was 29.4 µM (inactive).
For the molecule `COc1cc(C2c3cc4c(cc3OC3(O)COC(=O)C23)OCO4)cc(OC)c1OC` (configuration not stated), the GI50 was 53.2 µM in the experiment with HCT-15; > 100 µM (inactive) in the experiment on SK-MEL-2; 25.2 µM (inactive) in the experiment with SNB-75; 34.7 µM (inactive) with M14; 70 µM (inactive) with HCC 2998; 33.2 µM (inactive) in the experiment on HT-29. Also, the GI50 is 56.2 µM (inactive) in the experiment on NCI-H460; 78.3 µM (inactive) in the experiment on EKVX; 54 µM (inactive) in the experiment with OVCAR-8; 34.7 µM (inactive) in the experiment with UO-31; 53 µM (inactive) in the experiment on ACHN; 51.3 µM (inactive) in the experiment on TK-10. For the same molecule, the GI50 in the experiment with SF-539 is 28.8 µM (inactive); in the experiment on NCI-H23, 34.8 µM (inactive); with HCT-116, 51.1 µM (inactive); in the experiment on U-251, 38.4 µM (inactive); in the experiment on K562 it was 42.3 µM (inactive); with CAKI-1 it was 51.3 µM (inactive). Further, the GI50 in the experiment on CCRF-CEM was 34.7 µM (inactive).
With `O=C1C(Cl)=C(c2ccc([N+](=O)[O-])cc2)C(=O)c2c(O)cccc21`, the GI50 with HCT-15 was 0.614 µM; in the experiment on SK-MEL-2, 0.713 µM (active); with SNB-75, 1.83 µM (inactive); in the experiment with M14 it was 0.979 µM (active); with HCC 2998, 2.26 µM (inactive); with HT-29, 2.72 µM (inactive). For the same molecule, the GI50 in the experiment with NCI-H460 is 2.3 µM (inactive); in the experiment with EKVX, 3.35 µM (inactive); in the experiment with OVCAR-8, 1.39 µM (inactive); in the experiment on UO-31 it was 1.92 µM (inactive); in the experiment with ACHN, 1.11 µM (active); in the experiment with TK-10 it was 3.14 µM (inactive). The GI50 was 0.341 µM (active) in the experiment on SF-539; 1.82 µM (inactive) in the experiment on COLO 205; 1.67 µM (inactive) in the experiment on NCI-H23; 1.06 µM (active) in the experiment with HCT-116; 0.8 µM (active) with U-251; 1.11 µM (active) in the experiment with K562. Besides, the GI50 is 1.29 µM (inactive) in the experiment with CAKI-1 and 1.55 µM (inactive) in the experiment with CCRF-CEM.
